Assay results from patent publication US20080242667A1, “Pyrimidinyl-Pyrazole Inhibitors of Aurora Kinases” (SMITHKLINE BEECHAM CORPORATION, priority 2005, published 2008).

Molecule `O=C(Nc1ccc(-c2nn(CCO)cc2-c2ccnc(Nc3cccc(F)c3)n2)cc1)N1CCCC1` [Example 54, N-{4-[4-{2-[(3-fluorophenyl)amino]-4-pyrimidinyl}-1-(2-hydroxyethyl)-1H-pyrazol-3-yl]phenyl}-1-pyrrolidinecarboxamide] has a melting point of 185 to 186 °C. `Cn1cc(-c2ccnc(Nc3cccc(CCN4CCOCC4)c3)n2)c(-c2ccc(NC(=O)NC3CC3)cc2)n1` [Example 55, N-cyclopropyl-N′-(4-{1-methyl-4-[2-({3-[2-(4-morpholinyl)ethyl]phenyl}amino)-4-pyrimidinyl]-1H-pyrazol-3-yl}phenyl)urea] showed a melting point of 143 to 145 °C. In the case of `Cn1ncc(-c2ccnc(Nc3cccc(CCN4CCOCC4)c3)n2)c1-c1ccc(NC(=O)N2CCCC2)cc1` [Example 56, N-(4-{1-methyl-4-[2-({3-[2-(4-morpholinyl)ethyl]phenyl}amino)-4-pyrimidinyl]-1H-pyrazol-5-yl}phenyl)-1-pyrrolidinecarboxamide], the melting point was 228 to 230 °C. With `CCNC(=O)Nc1ccc(-c2nn(C)cc2-c2ccnc(Nc3cccc(CCN4CCOCC4)c3)n2)cc1` [Example 61, N-ethyl-N′-(4-{1-methyl-4-[2-({3-[2-(4-morpholinyl)ethyl]phenyl}amino)-4-pyrimidinyl]-1H-pyrazol-3-yl}phenyl)urea] the melting point was 139 to 141 °C. In the case of `CN(C)C(=O)Nc1ccc(-c2nn(C)cc2-c2ccnc(Nc3cccc(CCN4CCOCC4)c3)n2)cc1` [Example 65, N,N-dimethyl-N′-(4-{1-methyl-4-[2-({3-[2-(4-morpholinyl)ethyl]phenyl}amino)-4-pyrimidinyl]-1H-pyrazol-3-yl}phenyl)urea], the melting point was 132 to 134 °C. For `O=C(Nc1ccc(-c2nn(CCN3CCOCC3)cc2-c2ccnc(Nc3cccc(F)c3)n2)cc1)N1CCCC1` [Example 84, N-(4-{4-[2-{(3-fluorophenyl)amino]-4-pyrimidinyl}-1-[2-(4-morpholinyl)ethyl]-1H-pyrazol-3-yl}phenyl)-1-pyrrolidinecarboxamide], the melting point was 167 to 168 °C.
